Measured values taken from patent US12728137B2, “Methods of treating cancer with a combination of mithramycin and immunotherapy” (University of South Florida, priority 2019, dated 2026).

Tested on: CT26 cells
Test: CT26 cell viability with TGFβI and/or Mit-A (CellTiter-Glo)
Format: cell-based, mouse
Settings: LY2109761 (5 μM) and/or 150 nM Mit-A for 48 hrs; FIG. 9
Description: FIG. 9 depicts a bar graph of cell viability assayed by CellTiter-Glo of CT26 cells that were cultured in the presence of TGFβI, LY2109761 (5 μM) and/or 150 nM Mit-A for 48 hrs.
Mit-A potentiates the inhibitory effects of transforming growth factor β (TGFβ): TGFβ activated stroma is one of the defining features of MSS CRCs^33. […] However, inhibition of TGFβ in these tumors induced a potent anti-tumor response. Since Sp1 is implicated in TGFβ induced tumor invasion, whether inhibition of TGFβ signaling will promote sensitization of CT26 cells to Mit-A was examined.

Which CT26 cell viability does the source give for `c1ccc(-c2nn3c(c2-c2ccnc4cc(OCCN5CCOCC5)ccc24)CCC3)nc1` [LY2109761] here?
The CT26 cell viability was “did not inhibit”.
